# Source: US8486381B2, “Methods of modulating intestinal fluid balance” (Amgen Inc., priority 2005, dated 2013)
# Test system: cyclic GMP
# Assay: Secretagogue-stimulated cyclic GMP accumulation in colonic crypt cell suspensions
# Type: cell-based
structure (smiles),measurement,value
[Ca+2] [Ca^2+],Effect on Guanylin or STa induced cyclic GMP production,attenuates
